The results in this text go back to patent publication US20100137313A1 (ASTRAZENECA AB, priority 2008, published 2010).

SMILES strings stand for the structures.

Chain of S. pneumoniae Topoisomerase IV ATPase (ParE) (Q59961 whole entry): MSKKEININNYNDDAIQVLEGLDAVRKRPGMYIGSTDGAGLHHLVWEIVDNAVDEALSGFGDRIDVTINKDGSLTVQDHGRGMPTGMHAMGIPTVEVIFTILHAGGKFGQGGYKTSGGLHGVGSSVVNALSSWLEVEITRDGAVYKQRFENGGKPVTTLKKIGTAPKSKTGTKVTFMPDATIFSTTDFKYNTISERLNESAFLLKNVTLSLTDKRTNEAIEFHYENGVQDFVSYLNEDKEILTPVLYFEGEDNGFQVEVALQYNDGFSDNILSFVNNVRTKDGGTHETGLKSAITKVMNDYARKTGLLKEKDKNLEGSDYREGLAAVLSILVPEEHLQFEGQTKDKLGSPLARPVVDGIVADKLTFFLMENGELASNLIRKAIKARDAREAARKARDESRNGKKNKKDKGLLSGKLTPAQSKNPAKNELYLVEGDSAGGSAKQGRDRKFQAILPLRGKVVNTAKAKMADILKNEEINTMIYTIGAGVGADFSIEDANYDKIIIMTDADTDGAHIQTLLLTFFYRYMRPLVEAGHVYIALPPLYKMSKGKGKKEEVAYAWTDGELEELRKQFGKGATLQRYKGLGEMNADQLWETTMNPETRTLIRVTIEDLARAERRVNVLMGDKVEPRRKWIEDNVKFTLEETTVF

This test addresses S. pneumoniae Topoisomerase IV ATPase (ParE) (Streptococcus pneumoniae serotype 4, UniProt Q59961). As to the kind of experiment: S. pneumoniae Topoisomerase IV ATPase inhibition. Format: biochemical. Particulars: values marked * are an average of two or more data points, read-out: % Inh (13 μM) of S. pneumoniae Topoisomerase IV ATPase. A digest of the protocol: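 ParE ATPase (1.25 nM) run with 160 μM ATP and 5 μg/ml sheared salmon sperm DNA in Tris pH 8.0, Mg2+, glycerol, DTT, Brij-35. Phosphate released read by malachite green/molybdate absorbance at 650 nm. IC50 from 10 compound concentrations; DMSO (2%) as 0% and EDTA (20 μM) as 100% inhibition.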
In the case of `Cc1cc(C)cc(Nc2ncc(-c3cncc(C(=O)O)c3)c(-n3nc(C(F)(F)F)cc3C)n2)c1` [Example 638, 5-{2-[(3,5-dimethylphenyl)amino]-4-[5-methyl-3-(trifluoromethyl)-1H-pyrazol-1-yl]pyrimidin-5-yl}pyridine-3-carboxylic acid], the inhibition at 13 µM is 100%.

With `Cc1cc(C(F)F)nn1-c1nc(Nc2ccc(F)c(Cl)c2)ncc1-c1cccc(/C=C/C(=O)O)c1` [Example 563, (2E)-3-(3-{2-[(3-chloro-4-fluorophenyl)amino]-4-[3-(difluoromethyl)-5-methyl-1H-pyrazol-1-yl]pyrimidin-5-yl}phenyl)prop-2-enoic acid], the inhibition at 13 µM turned out to be 100%.

As for `O=C(O)c1cncc(-c2cnc(Nc3ccc(F)c(Cl)c3)nc2-n2cc(-c3ccncn3)cn2)c1` [Example 536, 5-{2-[(3-chloro-4-fluorophenyl)amino]-4-[4-(pyrimidin-4-yl)-1H-pyrazol-1-yl]pyrimidin-5-yl}pyridine-3-carboxylic acid], the inhibition at 13 µM was found to be 100%.

As to `O=C(O)/C=C/c1cccc(-c2cnc(Nc3ccc(F)c(Cl)c3)nc2-n2ccc(-c3ccsc3)n2)c1` [Example 565, (2E)-3-(3-{2-[(3-chloro-4-fluorophenyl)amino]-4-[3-(thiophen-3-yl)-1H-pyrazol-1-yl]pyrimidin-5-yl}phenyl)prop-2-enoic acid], the inhibition at 13 µM was 100%.

`O=C(O)c1cc(-c2cnc(Nc3ccc(F)c(Cl)c3)nc2N2CCOCC2)ccn1` [Example 493, 4-{2-[(3-chloro-4-fluorophenyl)amino]-4-(morpholin-4-yl)pyrimidin-5-yl}pyridine-2-carboxylic acid]: the inhibition at 13 µM was 9%.

On to `COc1cc(Nc2ncc(-c3cncc(C(=O)O)c3)c(N3CCOCC3)n2)cc(-n2nnnc2C)c1` [Example 445], for which the inhibition at 13 µM is 34%.

As for `O=C(O)/C=C/c1cccc(-c2cnc(Nc3ccc(F)c(Cl)c3)nc2N2CCN(C(=O)C3CC3)CC2)c1` [Example 287, (E)-3-(3-(2-(3-chloro-4-fluorophenylamino)-4-(4-(cyclopropanecarbonyl)-piperazin-1-yl)pyrimidin-5-yl)phenyl)acrylic acid], the inhibition at 13 µM was 97.2%.

`COc1ncc(-c2cnc(Nc3ccc(F)c(Cl)c3)nc2-n2nc(C(F)(F)F)cc2C)cc1C(=O)NS(C)(=O)=O` [Example 1025, 5-(2-(3-Chloro-4-fluorophenylamino)-4-(5-methyl-3-(trifluoromethyl)-1H-pyrazol-1-yl)pyrimidin-5-yl)-2-methoxy-N-(methylsulfonyl)nicotinamide]: the inhibition at 13 µM was found to be 98%.

Turning to `CCN1CCC(CNc2nc(Nc3ccc(F)c(Cl)c3)ncc2-c2cnc(OC)nc2)CC1` [Example 468, N2-(3-chloro-4-fluorophenyl)-N4-((1-ethylpiperidin-4-yl)methyl)-2′-methoxy-5,5′-bipyrimidine-2,4-diamine], the inhibition at 13 µM was determined as 80%.

With `COCCCNc1nc(Nc2ccc(F)c(Cl)c2)ncc1-c1ccc2sc(C(=O)O)cc2c1` [Example 307, 5-(2-(3-choloro-4-fluorophenylamino)-4-(3-methoxypropylamino)-pyrimidin-5-yl)benzo[b]thiophene-2-carboxylic acid], the inhibition at 13 µM amounted to 80.6%.

Take `COCCCNc1nc(Nc2ccc(F)c(Cl)c2)ncc1-c1cccc(/C=C/C(=O)O)c1` [Example 293, (E)-3-(3-(2-(3-chloro-4-fluorophenylamino)-4-(3-methoxypropylamino)-pyrimidin-5-yl)phenyl)acrylic acid]: the inhibition at 13 µM was determined as 85.3%.

On to `CCC(C)Nc1nc(Nc2ccc(F)c(Cl)c2)ncc1-c1ccc(OC)c(C(F)(F)F)c1` (centres unmarked) [Example 1109, N′-butan-2-yl-N-(3-chloro-4-fluorophenyl)-5-[4-methoxy-3-(trifluoromethyl)phenyl]pyrimidine-2,4-diamine], for which the inhibition at 13 µM came out at 28%.

For the compound `O=C(O)c1cc(-c2cnc(Nc3ccc(F)c(Cl)c3)nc2-n2ccc(C(F)(F)F)n2)ccn1` [Example 1068, 4-(2-(3-Chloro-4-fluorophenylamino)-4-(3-(trifluoromethyl)-1H-pyrazol-1-yl)pyrimidin-5-yl)picolinic acid], the inhibition at 13 µM was determined as 100%.

In the case of `COc1ncc(-c2cnc(Nc3ccc(F)c(Cl)c3)nc2N2CCOCC2)cn1` [Example 77, N-(3-chloro-4-fluorophenyl)-2′-methoxy-4-morpholin-5,5′-bipyrimidin-2-amine], the inhibition at 13 µM amounted to 83%.

Turning to `CC(=O)NCCNc1nc(Nc2ccc(F)c(Cl)c2)ncc1-c1cncc(C(=O)O)c1` [Example 221, 5-[4-(2-Acetylamino-ethylamino)-2-(3-chloro-4-fluoro-phenylamino)-pyrimidin-5-yl]-nicotinic acid], the inhibition at 13 µM was 81%.

Regarding `CCOC(=O)c1cncc(-c2cnc(Nc3ccc(F)c(Cl)c3)nc2NCc2cnn(C)c2)c1` [Example 148, ethyl 5-(2-(3-chloro-4-fluorophenylamino)-4-((1-methyl-1H-pyrazol-4-yl)methylamino)pyrimidin-5-yl)-nicotinate], the inhibition at 13 µM was 120%.

Take `COc1cc(C)cc(Nc2ncc(-c3cc(C(=O)NS(C)(=O)=O)c(=O)n(C)c3)c(-n3nc(C(F)(F)F)cc3C)n2)c1` [Example 1174, 5-{2-[(3-methoxy-5-methylphenyl)amino]-4-[5-methyl-3-(trifluoromethyl)-1H-pyrazol-1-yl]pyrimidin-5-yl}-1-methyl-N-(methylsulfonyl)-2-oxo-1,2-dihydropyridine-3-carboxamide]: the inhibition at 13 µM worked out at 100%.

On to `COCCNc1nc(Nc2ccc(F)c(Cl)c2)ncc1-c1cncnc1` [Example 50, N^2-(3-chloro-4-fluorophenyl)-N^4-(2-methoxyethyl)-5-pyrimidin-5-ylpyrimidine-2,4-diamine], for which the inhibition at 13 µM is 77.8%.

For `COc1cc(Nc2ncc(-c3cnc(OC)c(C(=O)O)c3)c(-n3ccc(C4CC4)n3)n2)cc(OC)c1` [Example 1143, 5-(4-(3-cyclopropyl-1H-pyrazol-1-yl)-2-(3,5-dimethoxyphenylamino)pyrimidin-5-yl)-2-methoxynicotinic acid], the inhibition at 13 µM came out at 100%.

Turning to `O=C(O)/C=C/c1cccc(-c2cnc(Nc3ccc(F)c(Cl)c3)cc2N2CCOCC2)c1` [Example 1129], the inhibition at 13 µM was 83%.

On to `COc1cc(Nc2ncc(-c3cnc(OC)c(C(=O)NS(=O)(=O)CC(F)(F)F)c3)c(-n3nc(C(F)(F)F)cc3C)n2)cc(OC)c1` [Example 835, 5-{2-[(3,5-dimethoxyphenyl)amino]-4-[5-methyl-3-(trifluoromethyl)-1H-pyrazol-1-yl]pyrimidin-5-yl}-2-methoxy-N-[(2,2,2-trifluoroethyl)sulfonyl]pyridine-3-carboxamide], for which the inhibition at 13 µM turned out to be 95%.

Take `COc1cc(F)cc(Nc2ncc(-c3cncc(C(=O)O)c3)c(-n3nc(C(F)(F)F)cc3C)n2)c1` [Example 916, 5-(2-(3-fluoro-5-methoxyphenylamino)-4-(5-methyl-3-(trifluoromethyl)-1H-pyrazol-1-yl)pyrimidin-5-yl)nicotinic acid]: the inhibition at 13 µM is 99%.

Take `CCOC(=O)c1sc(-c2cnc(Nc3ccc(F)c(Cl)c3)nc2NCCCOC)nc1-c1ccn(C)n1` [Example 508, ethyl 2-{2-[(3-chloro-4-fluorophenyl)amino]-4-[(3-methoxypropyl)amino]pyrimidin-5-yl}-4-(1-methyl-1H-pyrazol-3-yl)-1,3-thiazole-5-carboxylate]: the inhibition at 13 µM was 0%.
